HELM strings list units from the 5' end as sugar, base in round brackets, then linkage (d deoxyribose, r ribose, m 2'-O-methyl, p phosphodiester). Strings are as the collection lists them, not checked against the first reports. ss, as = sense and antisense strand; [lna] = locked nucleic acid (LNA); [hna] = hexitol nucleic acid; [fl2r] = 2'-fluoro
Conditions: siRNA
Note: test system not given here.

## RNA1{r(G)p.r(A)p.r(C)p.r(G)p.r(U)p.r(A)p.r(A)p.r(A)p.r(C)p.r(G)p.r(G)p.r(C)p.r(C)p.r(A)p.r(C)p.r(A)p.r(A)p.r(G)p.[hna](U)p.[hna](U)p.r(C)}|RNA2{r(A)p.m(C)p.r(U)p.r(U)p.r(G)p.r(U)p.r(G)p.r(G)p.r(C)p.r(C)p.r(G)p.r(U)p.r(U)p.r(U)p.r(A)p.r(C)p.r(G)p.r(U)p.r(C)p.r(G)p.r(C)}$$$RNA1{StrandType:ss}|RNA2{StrandType:as}$
  target mRNA knockdown: 57%

## RNA1{r(G)p.r(A)p.r(C)p.r(G)p.r(U)p.r(A)p.r(A)p.r(A)p.r(C)p.r(G)p.r(G)p.r(C)p.r(C)p.r(A)p.r(C)p.r(A)p.r(A)p.r(G)p.[hna](U)p.[hna](U)p.r(C)}|RNA2{r(A)p.r(C)p.[lna](T)p.r(U)p.r(G)p.[lna](T)p.r(G)p.r(G)p.r(C)p.r(C)p.r(G)p.r(U)p.r(U)p.[lna](T)p.r(A)p.r(C)p.r(G)p.[lna](T)p.r(C)p.[lna](G)p.[lna](C)}$$$RNA1{StrandType:ss}|RNA2{StrandType:as}$
  target mRNA knockdown: 13.3%

## RNA1{r(G)p.r(A)p.r(C)p.r(G)p.r(U)p.r(A)p.r(A)p.r(A)p.r(C)p.r(G)p.r(G)p.r(C)p.r(C)p.r(A)p.r(C)p.r(A)p.r(A)p.r(G)p.[hna](U)p.[hna](U)p.r(C)}|RNA2{r(A)p.r(C)p.r(U)p.r(U)p.r(G)p.r(U)p.r(G)p.r(G)p.r(C)p.r(C)p.r(G)p.r(U)p.r(U)p.r(U)p.r(A)p.r(C)p.r(G)p.r(U)p.[lna](C)p.[lna](G)p.r(C)}$$$RNA1{StrandType:ss}|RNA2{StrandType:as}$
  target mRNA knockdown: 83.8%

## RNA1{r(G)p.r(A)p.r(C)p.r(G)p.r(U)p.r(A)p.r(A)p.r(A)p.r(C)p.r(G)p.r(G)p.r(C)p.r(C)p.r(A)p.r(C)p.r(A)p.r(A)p.r(G)p.[hna](U)p.[hna](U)p.r(C)}|RNA2{r(A)p.r(C)p.r(U)p.r(U)p.r(G)p.r(U)p.r(G)p.r(G)p.r(C)p.r(C)p.r(G)p.r(U)p.r(U)p.r(U)p.r(A)p.r(C)p.r(G)p.r(U)p.r(C)p.r(G)p.r(C)}$$$RNA1{StrandType:ss}|RNA2{StrandType:as}$
  target mRNA knockdown: 88.7%

## RNA1{r(G)p.r(A)p.r(C)p.r(G)p.r(U)p.r(A)p.r(A)p.r(A)p.r(C)p.r(G)p.r(G)p.r(C)p.r(C)p.r(A)p.r(C)p.r(A)p.r(A)p.r(G)p.r(U)p.[lna](T)p.[lna](C)}|RNA2{[fl2r](A)p.m(C)p.[fl2r](U)p.m(U)p.[fl2r](G)p.m(U)p.[fl2r](G)p.m(G)p.[fl2r](C)p.m(C)p.[fl2r](G)p.m(U)p.[fl2r](U)p.m(U)p.[fl2r](A)p.m(C)p.[fl2r](G)p.m(U)p.[fl2r](C)p.m(G)p.[fl2r](C)}$$$RNA1{StrandType:ss}|RNA2{StrandType:as}$
  target mRNA knockdown: 81.2%

## RNA1{r(G)p.r(A)p.r(C)p.r(G)p.r(U)p.r(A)p.r(A)p.r(A)p.r(C)p.r(G)p.r(G)p.r(C)p.r(C)p.r(A)p.r(C)p.r(A)p.r(A)p.r(G)p.r(U)p.[lna](T)p.[lna](C)}|RNA2{r(A)p.m(C)p.r(U)p.r(U)p.r(G)p.r(U)p.r(G)p.r(G)p.r(C)p.r(C)p.r(G)p.r(U)p.r(U)p.r(U)p.r(A)p.r(C)p.r(G)p.r(U)p.r(C)p.r(G)p.r(C)}$$$RNA1{StrandType:ss}|RNA2{StrandType:as}$
  target mRNA knockdown: 81%

## RNA1{r(G)p.r(A)p.r(C)p.r(G)p.r(U)p.r(A)p.r(A)p.r(A)p.r(C)p.r(G)p.r(G)p.r(C)p.r(C)p.r(A)p.r(C)p.r(A)p.r(A)p.r(G)p.r(U)p.[lna](T)p.[lna](C)}|RNA2{r(A)p.r(C)p.[lna](T)p.r(U)p.r(G)p.[lna](T)p.r(G)p.r(G)p.r(C)p.r(C)p.r(G)p.r(U)p.r(U)p.[lna](T)p.r(A)p.r(C)p.r(G)p.[lna](T)p.r(C)p.[lna](G)p.[lna](C)}$$$RNA1{StrandType:ss}|RNA2{StrandType:as}$
  target mRNA knockdown: 3%

## RNA1{r(G)p.r(A)p.r(C)p.r(G)p.r(U)p.r(A)p.r(A)p.r(A)p.r(C)p.r(G)p.r(G)p.r(C)p.r(C)p.r(A)p.r(C)p.r(A)p.r(A)p.r(G)p.r(U)p.[lna](T)p.[lna](C)}|RNA2{r(A)p.r(C)p.r(U)p.r(U)p.r(G)p.r(U)p.r(G)p.r(G)p.r(C)p.r(C)p.r(G)p.r(U)p.r(U)p.r(U)p.r(A)p.r(C)p.r(G)p.r(U)p.[lna](C)p.[lna](G)p.r(C)}$$$RNA1{StrandType:ss}|RNA2{StrandType:as}$
  target mRNA knockdown: 86.7%

## RNA1{r(G)p.r(A)p.r(C)p.r(G)p.r(U)p.r(A)p.r(A)p.r(A)p.r(C)p.r(G)p.r(G)p.r(C)p.r(C)p.r(A)p.r(C)p.r(A)p.r(A)p.r(G)p.r(U)p.[lna](T)p.[lna](C)}|RNA2{r(A)p.r(C)p.r(U)p.r(U)p.r(G)p.r(U)p.r(G)p.r(G)p.r(C)p.r(C)p.r(G)p.r(U)p.r(U)p.r(U)p.r(A)p.r(C)p.r(G)p.r(U)p.r(C)p.r(G)p.r(C)}$$$RNA1{StrandType:ss}|RNA2{StrandType:as}$
  target mRNA knockdown: 87.4%

## RNA1{r(G)p.r(A)p.r(C)p.r(G)p.r(U)p.r(A)p.r(A)p.r(A)p.r(C)p.r(G)p.r(G)p.r(C)p.r(C)p.r(A)p.r(C)p.r(A)p.r(A)p.r(G)p.r(U)p.r(U)p.r(C)}|RNA2{[fl2r](A)p.m(C)p.[fl2r](U)p.m(U)p.[fl2r](G)p.m(U)p.[fl2r](G)p.m(G)p.[fl2r](C)p.m(C)p.[fl2r](G)p.m(U)p.[fl2r](U)p.m(U)p.[fl2r](A)p.m(C)p.[fl2r](G)p.m(U)p.[fl2r](C)p.m(G)p.[fl2r](C)}$$$RNA1{StrandType:ss}|RNA2{StrandType:as}$
  target mRNA knockdown: 73.8%

## RNA1{r(G)p.r(A)p.r(C)p.r(G)p.r(U)p.r(A)p.r(A)p.r(A)p.r(C)p.r(G)p.r(G)p.r(C)p.r(C)p.r(A)p.r(C)p.r(A)p.r(A)p.r(G)p.r(U)p.r(U)p.r(C)}|RNA2{r(A)p.m(C)p.r(U)p.r(U)p.r(G)p.r(U)p.r(G)p.r(G)p.r(C)p.r(C)p.r(G)p.r(U)p.r(U)p.r(U)p.r(A)p.r(C)p.r(G)p.r(U)p.r(C)p.r(G)p.r(C)}$$$RNA1{StrandType:ss}|RNA2{StrandType:as}$
  target mRNA knockdown: 76%

## RNA1{r(G)p.r(A)p.r(C)p.r(G)p.r(U)p.r(A)p.r(A)p.r(A)p.r(C)p.r(G)p.r(G)p.r(C)p.r(C)p.r(A)p.r(C)p.r(A)p.r(A)p.r(G)p.r(U)p.r(U)p.r(C)}|RNA2{r(A)p.r(C)p.[lna](T)p.r(U)p.r(G)p.[lna](T)p.r(G)p.r(G)p.r(C)p.r(C)p.r(G)p.r(U)p.r(U)p.[lna](T)p.r(A)p.r(C)p.r(G)p.[lna](T)p.r(C)p.[lna](G)p.[lna](C)}$$$RNA1{StrandType:ss}|RNA2{StrandType:as}$
  target mRNA knockdown: 0%

## RNA1{r(G)p.r(A)p.r(C)p.r(G)p.r(U)p.r(A)p.r(A)p.r(A)p.r(C)p.r(G)p.r(G)p.r(C)p.r(C)p.r(A)p.r(C)p.r(A)p.r(A)p.r(G)p.r(U)p.r(U)p.r(C)}|RNA2{r(A)p.r(C)p.r(U)p.r(U)p.r(G)p.r(U)p.r(G)p.r(G)p.r(C)p.r(C)p.r(G)p.r(U)p.r(U)p.r(U)p.r(A)p.r(C)p.r(G)p.r(U)p.[lna](C)p.[lna](G)p.r(C)}$$$RNA1{StrandType:ss}|RNA2{StrandType:as}$
  target mRNA knockdown: 86.3%

## RNA1{r(G)p.r(A)p.r(C)p.r(G)p.r(U)p.r(A)p.r(A)p.r(A)p.r(C)p.r(G)p.r(G)p.r(C)p.r(C)p.r(A)p.r(C)p.r(A)p.r(A)p.r(G)p.r(U)p.r(U)p.r(T)}|RNA2{r(A)p.r(C)p.r(U)p.r(U)p.r(G)p.r(U)p.r(G)p.[hna](G)p.r(C)p.r(C)p.r(G)p.r(U)p.r(U)p.[hna](U)p.r(A)p.r(C)p.r(G)p.[hna](U)p.[hna](C)p.[hna](G)p.r(T)}$$$RNA1{StrandType:ss}|RNA2{StrandType:as}$
  target mRNA knockdown: 87%

## RNA1{r(G)p.r(A)p.r(G)p.[fl2r](U)p.r(A)p.r(U)p.r(U)p.r(U)p.r(C)p.r(C)p.r(G)p.r(C)p.[fl2r](U)p.r(G)p.r(G)p.r(A)p.r(A)p.r(C)p.r(U)p.r(T)p.r(T)}|RNA2{r(A)p.r(G)p.r(U)p.r(U)p.r(C)p.[fl2r](C)p.r(A)p.r(G)p.r(C)p.r(G)p.r(G)p.r(A)p.r(A)p.r(A)p.[fl2r](U)p.r(A)p.r(C)p.r(U)p.r(C)p.r(T)p.r(T)}$$$RNA1{StrandType:ss}|RNA2{StrandType:as}$
  target mRNA knockdown: 73%

## RNA1{r(G)p.r(A)p.r(G)p.[fl2r](U)p.r(A)p.r(U)p.r(U)p.r(U)p.r(C)p.r(C)p.r(G)p.r(C)p.r(U)p.r(G)p.r(G)p.r(A)p.r(A)p.r(C)p.r(U)p.r(T)p.r(T)}|RNA2{r(A)p.r(G)p.r(U)p.r(U)p.r(C)p.r(C)p.r(A)p.r(G)p.r(C)p.r(G)p.r(G)p.r(A)p.r(A)p.r(A)p.[fl2r](U)p.r(A)p.r(C)p.r(U)p.r(C)p.r(T)p.r(T)}$$$RNA1{StrandType:ss}|RNA2{StrandType:as}$
  target mRNA knockdown: 75%

## RNA1{r(G)p.r(A)p.r(G)p.r(A)p.r(G)p.r(A)p.r(G)p.r(A)p.r(C)p.r(G)p.r(G)p.m(U)p.m(G)p.r(G)p.r(A)p.r(A)p.r(G)p.r(A)p.r(A)p.r(T)p.r(T)}|RNA2{r(U)p.r(U)p.r(C)p.r(U)p.r(U)p.r(C)p.m(C)p.r(A)p.r(C)p.r(C)p.r(G)p.r(U)p.r(C)p.r(U)p.r(C)p.r(U)p.r(C)p.r(U)p.r(C)p.r(T)p.r(T)}$$$RNA1{StrandType:ss}|RNA2{StrandType:as}$
  target mRNA knockdown: 72%

## RNA1{r(G)p.r(A)p.r(G)p.r(A)p.r(G)p.r(A)p.r(G)p.r(A)p.r(C)p.r(G)p.r(G)p.r(U)p.r(G)p.r(G)p.r(A)p.r(A)p.r(G)p.r(A)p.r(A)p.r(T)p.r(T)}|RNA2{r(U)p.r(U)p.r(C)p.r(U)p.r(U)p.r(C)p.r(C)p.m(A)p.r(C)p.r(C)p.r(G)p.r(U)p.r(C)p.r(U)p.r(C)p.r(U)p.r(C)p.r(U)p.r(C)p.r(T)p.r(T)}$$$RNA1{StrandType:ss}|RNA2{StrandType:as}$
  target mRNA knockdown: 74%

## RNA1{r(G)p.r(A)p.r(G)p.r(G)p.r(A)p.m(U)p.r(G)p.r(G)p.r(A)p.r(U)p.r(U)p.r(C)p.r(G)p.m(A)p.r(C)p.r(U)p.m(U)p.r(A)p.r(G)p.r(T)p.r(T)}|RNA2{r(C)p.m(U)p.r(A)p.r(A)p.m(G)p.r(U)p.r(C)p.r(G)p.r(A)p.r(A)p.r(U)p.r(C)p.m(C)p.r(A)p.r(U)p.r(C)p.r(C)p.r(U)p.r(C)p.r(T)p.r(T)}$$$RNA1{StrandType:ss}|RNA2{StrandType:as}$
  target mRNA knockdown: 91%

## RNA1{r(G)p.r(A)p.r(G)p.r(G)p.r(A)p.r(A)p.r(G)p.r(A)p.m(U)p.r(G)p.r(A)p.r(G)p.r(U)p.m(U)p.r(G)p.m(U)p.r(A)p.r(C)p.r(C)p.r(T)p.r(T)}|RNA2{r(G)p.r(G)p.r(U)p.r(A)p.m(C)p.r(A)p.r(A)p.r(C)p.r(U)p.m(C)p.r(A)p.r(U)p.r(C)p.r(U)p.r(U)p.r(C)p.r(C)p.r(U)p.r(C)p.r(T)p.r(T)}$$$RNA1{StrandType:ss}|RNA2{StrandType:as}$
  target mRNA knockdown: 76%
